# Measured values: patent publication US5464835A, “Use for bis-heterocyclic compounds and pharmaceutical compositions containing same” (Harbor Branch Oceanographic Institution, Inc., priority 1994, dated 1995)
# pIC50: −log10 of the molar value.
# Key:
# [1] = biological target: bee venom phospholipase A2 (Apis mellifera, UniProt P00630); test: biochemical; type: biochemical; conditions: for inhibition at 1 µM: final concentration 1 μM; for inhibition at 1 µM / inhibition at 1.6 µM: read-out: % Inactivation of bee venom phospholipase A2; for inhibition at 1.6 µM: final concentration 1.6 μM
# bee venom phospholipase A2, sequence (P00630 34-167 limits assumed): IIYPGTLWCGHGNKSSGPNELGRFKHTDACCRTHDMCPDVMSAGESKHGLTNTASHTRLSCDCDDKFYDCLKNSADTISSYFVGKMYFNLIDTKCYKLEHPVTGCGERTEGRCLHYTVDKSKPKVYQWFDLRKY
# [2] = test system: PMA-induced mouse ear edema; test: Mouse ear anti-inflammatory assay (topical inhibition of PMA-induced edema); conditions: for percent inhibition of mouse ear edema (dose-response): FIG. 3; for % Inhibition of edema / ED50, topical inhibition of PMA-induced mouse ear edema: topical; for % Inhibition of edema: Table 3; for inhibition of PMA-induced edema / anti-inflammatory activity (in words): result in words; for ED50, topical inhibition of PMA-induced mouse ear edema: simultaneous with PMA, 3 h 20 min, Table 2; for percent inhibition of edema (dose-response): FIG. 2
# Protocol: A. Mouse ear anti-inflammatory assay. The test compound and a known inflammatory agent, phorbol myristate acetate (PMA), are topically applied simultaneously to the left ears of mice. Three hours and 20 minutes following application, the mice are sacrificed. Both left and right ears are removed and standard-sized bores taken. Edema (inflammation) is measured as the difference in weight between left and right ears (Van Arman, C. G. [1974] Clin. Pharmacol. Ther. 16:900-904).
# Candida albicans = test: Antifungal activity against Candida albicans (MIC, RPMI-1640 growth medium); type: cell-based
Structure (SMILES),inhibition at 1 µM ([1]; 1 h) [%],% Inhibition of edema ([2]; dose 50 μg/ear) [%],inhibition of PMA-induced edema / anti-inflammatory activity (in words) [2],pIC50 [1],"ED50, topical inhibition of PMA-induced mouse ear edema [2] [μg/ear]",further results
O=C(c1nc(-c2c[nH]c3cc(Br)ccc23)c[nH]1)c1c[nH]c2cc(O)ccc12 [Bromotopsentin],33,75.4,significant potency,,,percent inhibition of mouse ear edema (dose-response) ([2]; 50 μg/ear): about 75%; percent inhibition of mouse ear edema (dose-response) ([2]; approximately 25 μg/ear): about 20%
CN1CC(c2c[nH]c3c(Br)c(Br)cc(O)c23)NCC1c1c[nH]c2cc(Br)ccc12 (stereo not shown) [Dragmacidin],27,64.0,significant potency,,,
O=C1NC(c2c[nH]c3cc(Br)ccc23)CN=C1c1c[nH]c2cc(Br)ccc12 (stereo not shown) [Hamacanthin A],,,,,,inhibition at 1.6 µM ([1]; 1 h): 37%; antifungal activity (in words) (Candida albicans): active components; % Inhibition of edema ([2]; dose 50 μM (so in the source)): 50.0%
O=C1NCC(c2c[nH]c3cc(Br)ccc23)N=C1c1c[nH]c2cc(Br)ccc12 (stereo not shown) [Hamacanthin B],,,,,,inhibition at 1.6 µM ([1]; 1 h): 32%; antifungal activity (in words) (Candida albicans): active components; % Inhibition of edema ([2]; dose 50 μM (so in the source)): 34.0%
"C[C@]12CCC(=O)C=C1CC[C@@H]1[C@@H]2[C@@H](O)C[C@@]2(C)[C@H]1CC[C@]2(O)C(=O)CO [Hydrocortisone, reference compound]",,,,< 3.00,20,inactivation of bee venom phospholipase A2 (in words) [1]: inactive
"COc1ccc2c(c1)c(CC(=O)O)c(C)n2C(=O)c1ccc(Cl)cc1 [Indomethacin, reference compound]",,,,< 3.00,250,inactivation of bee venom phospholipase A2 (in words) [1]: inactive
"CC1=C(CC/C(C)=C/CCC2=CC[C@H](C3=CC(=O)O[C@H]3O)O[C@H]2O)C(C)(C)CCC1 [Manoalide, reference compound]",,,,7.30,100,
Brc1ccc2c(-c3c[nH]c(-c4c[nH]c5cc(Br)ccc45)n3)c[nH]c2c1 [Nortopsentin A],30,98.1,significant potency,,,
"Brc1ccc2c(-c3nc(-c4c[nH]c5ccccc45)c[nH]3)c[nH]c2c1 [Nortopsentin B, nortopsentin B]",27,38.2,,,,
"Brc1ccc2c(-c3c[nH]c(-c4c[nH]c5ccccc45)n3)c[nH]c2c1 [Nortopsentin C, nortopsentin C]",26,70.1,significant potency,,,
"CC(=O)Oc1ccc2c(C(=O)c3ncc(-c4c[nH]c5ccccc45)n3C(C)=O)c[nH]c2c1 [Topsentin diacetate, topsentin diacetate]",32,42.6,moderate activity,,,
CC(=O)Oc1ccc2c(C(=O)c3ncc(-c4c[nH]c5ccccc45)[nH]3)c[nH]c2c1 [Topsentin monoacetate],42,45.8,moderate activity,,,
O=C(c1nc(-c2c[nH]c3ccccc23)c[nH]1)c1c[nH]c2cc(O)ccc12 [Topsentin],67,70.6,significant potency,6.30,15,"inactivation of bee venom phospholipase A2 (in words) [1]: capable of the inactivation of bee venom phospholipase A2; inhibition at 2 µM ([1]; 1 h, read-out: percent inactivation of bee venom phospholipase A2 (dose-response)): ≤ 80%; percent inhibition of edema (dose-response) ([2]; 100 μg/ear): more than 90%; percent inhibition of edema (dose-response) ([2]; about 12 μg/ear): ~50%; inhibition of PMA-induced edema / anti-inflammatory activity (in words) ([2]; listed as topsentin): greater potency than to the known anti-inflammatories hydrocortisone, indomethacin, and manoalide"
